Test results as given in paper PMC8539420, “Discovery of a Potent and Selective JNK3 Inhibitor with Neuroprotective Effect Against Amyloid β-Induced Neurotoxicity in Primary Rat Neurons” (International Journal of Molecular Sciences, 2021).

Tests used:
TYRO3/SKY = target: T1, TYRO3/SKY (Homo sapiens, UniProt Q06418); assay: Kinase panel screening 1 μM; assay type: biochemical; details: read-out: enzymatic inhibition TYRO3/SKY
T1 construct: purchased Reaction Biology Corp. (Kinase HotSpot)

caspase-3 = assay: Western blot of amyloid-β-induced caspase-3 activation (cleavage) in neurons; assay type: cell-based, rat; details: pre-treated 90 minutes, 10 μM amyloid-β1-42 24 hours
Description: To establish whether the derived selective JNK3 inhibitor actually has the ability to protect neurons from amyloid β-induced neuronal cell death, which is known as the pathogenesis of Alzheimer’s disease, we performed cytotoxicity experiments using Aβ 42, which is known as the most toxic fragment of the amyloid protein. The amyloid-β is known to mainly cause apoptosis during cell death, so it was confirmed whether the derived selective JNK3 inhibitors affect the activation (cleavage) of caspase-3, which are apoptosis-related signaling substances. […] This means that selective JNK3 inhibitors can inhibit apoptosis signaling by amyloid-β in neurons, thereby inhibiting apoptosis. Additionally, we confirmed that JNK activation was induced by amyloid-β in neurons, and the derived selective JNK3 inhibitors could inhibit JNK activation induced by amyloid-β. […] Then, the experiments for JNK3 inhibitors’ effect on the viability of neurons were conducted for five 6-dihydroxy benzimidazoles (35a-35e) by comparing it with previously published resveratrol as a positive control. On the 5th day of rat primary cortical neuron differentiation, each compound was pre-treated for 90 min and then treated with 10 μM Aβ 42 (HIFP-treated) for 24 or 48 h, and cell viability was measured by MTT assay. […]

JNK3(h) = target: T2, JNK3(h) (Homo sapiens, UniProt P53779); assay: Kinase HotSpot radiometric assay, JNK3; assay type: biochemical
T2 construct: purchased Reaction Biology Corp
T2 sequence (P53779 whole entry): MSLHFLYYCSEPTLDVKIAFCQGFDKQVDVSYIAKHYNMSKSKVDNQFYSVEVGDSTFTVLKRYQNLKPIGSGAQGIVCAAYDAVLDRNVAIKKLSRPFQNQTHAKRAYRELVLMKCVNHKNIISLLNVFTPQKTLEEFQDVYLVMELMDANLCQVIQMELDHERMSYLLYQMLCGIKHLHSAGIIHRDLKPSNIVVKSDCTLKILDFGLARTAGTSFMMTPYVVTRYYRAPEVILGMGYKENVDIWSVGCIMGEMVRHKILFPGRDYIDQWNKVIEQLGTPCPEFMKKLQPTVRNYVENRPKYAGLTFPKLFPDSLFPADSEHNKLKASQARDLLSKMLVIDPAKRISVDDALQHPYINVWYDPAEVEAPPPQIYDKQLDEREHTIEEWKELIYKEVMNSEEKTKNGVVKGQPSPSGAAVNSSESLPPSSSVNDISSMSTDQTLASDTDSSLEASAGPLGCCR

AKT1 = target: T3, AKT1 (Homo sapiens, UniProt P31749); assay: Kinase panel screening 1 μM; assay type: biochemical; details: read-out: enzymatic inhibition AKT1
T3 construct: purchased Reaction Biology Corp. (Kinase HotSpot)
T3 sequence (P31749 whole entry): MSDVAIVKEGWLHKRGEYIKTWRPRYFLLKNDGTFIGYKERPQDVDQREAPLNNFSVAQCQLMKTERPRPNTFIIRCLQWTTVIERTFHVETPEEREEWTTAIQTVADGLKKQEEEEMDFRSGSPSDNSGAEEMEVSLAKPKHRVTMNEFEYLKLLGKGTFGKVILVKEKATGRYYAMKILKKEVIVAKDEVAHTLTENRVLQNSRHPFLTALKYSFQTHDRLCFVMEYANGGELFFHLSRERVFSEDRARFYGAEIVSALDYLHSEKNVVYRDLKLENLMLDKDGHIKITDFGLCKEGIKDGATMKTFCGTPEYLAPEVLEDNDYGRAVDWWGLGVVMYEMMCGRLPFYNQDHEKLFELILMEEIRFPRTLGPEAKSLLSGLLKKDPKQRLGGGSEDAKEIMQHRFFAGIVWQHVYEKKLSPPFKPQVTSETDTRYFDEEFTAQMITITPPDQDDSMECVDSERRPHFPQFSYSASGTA

T1 sequence (Q06418 41-890): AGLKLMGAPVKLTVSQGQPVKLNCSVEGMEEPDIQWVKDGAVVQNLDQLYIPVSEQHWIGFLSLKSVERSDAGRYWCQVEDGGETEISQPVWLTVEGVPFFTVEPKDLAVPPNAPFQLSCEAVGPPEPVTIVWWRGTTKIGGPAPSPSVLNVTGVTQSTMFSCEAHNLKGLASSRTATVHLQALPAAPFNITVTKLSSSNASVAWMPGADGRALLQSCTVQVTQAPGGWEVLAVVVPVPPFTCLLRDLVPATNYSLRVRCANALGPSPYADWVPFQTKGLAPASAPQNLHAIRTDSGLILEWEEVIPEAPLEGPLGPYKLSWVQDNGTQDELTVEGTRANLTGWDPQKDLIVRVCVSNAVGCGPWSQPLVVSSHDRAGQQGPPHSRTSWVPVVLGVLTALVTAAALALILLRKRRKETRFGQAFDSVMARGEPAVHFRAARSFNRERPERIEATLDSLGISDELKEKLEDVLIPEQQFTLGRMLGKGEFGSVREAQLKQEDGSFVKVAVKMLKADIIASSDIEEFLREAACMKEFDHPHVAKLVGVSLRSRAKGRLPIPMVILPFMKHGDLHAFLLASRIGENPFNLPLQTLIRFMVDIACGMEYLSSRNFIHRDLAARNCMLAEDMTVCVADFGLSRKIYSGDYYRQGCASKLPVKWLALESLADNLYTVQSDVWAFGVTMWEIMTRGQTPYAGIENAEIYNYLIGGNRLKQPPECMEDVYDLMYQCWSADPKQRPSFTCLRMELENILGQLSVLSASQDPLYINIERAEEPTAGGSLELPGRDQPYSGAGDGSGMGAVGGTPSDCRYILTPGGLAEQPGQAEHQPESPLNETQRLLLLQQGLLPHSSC

inhibition at 1 µM (TYRO3/SKY): 0%
inhibition at 1 µM (JNK3(h); 1 μM, read-out: enzymatic inhibition JNK3): 90%
IC50 (JNK3(h); ATP 10 μM, substrate ATF2 5 μM, read-out: JNK3 inhibitory activity IC50): 9.7 nM
inhibition at 1 µM (AKT1): 0%
SMILES: O=C(C1CC1)N1CCC[C@H](Nc2nccc(-n3c(-c4ccc5c(c4)OCCO5)nc4cc(O)c(O)cc43)n2)C1 [35b, (S)-Cyclopropyl(3-((4-(2-(2,3-dihydrobenzo[b][1,4]dioxin-6-yl)-5,6-dihydroxy-1H-benzo[d]imidazol-1-yl)pyrimidin-2-yl)amino)piperidin-1-yl)methanone]
activation (cleavage) of caspase-3 by amyloid-β (caspase-3): inhibited the activation of caspase-3
